# Entries after “also recorded” stand apart in the source; their conditions may differ. Where two headings read alike, the source gives them in different places.
# Key:
# [1] = system: eukaryotic cytoplasmic ribosome; assay: Eukaryotic in vitro translation inhibition, TNT T7 Quick Coupled Transcription/Translation System, luciferase; assay type: biochemical; conditions: NB156 vs NB74, NB157 vs NB124
# Description: Prokaryotic in vitro translation inhibition by the different aminoglycosides was quantified in coupled transcription/translation assays by using E. coli S30 extract for circular DNA with the pBESTluc plasmid (Promega), according to the manufacturer's protocol. Translation reactions (25 μL) that contained variable concentrations of the tested aminoglycoside were incubated at 37° C. for 60 minutes, cooled on ice for 5 minutes, and diluted with a dilution reagent (tris-phosphate buffer (25 mM, pH 7.8), DTT (2 mM), 1,2-diaminocyclohexanetetraacetate (2 mM), glycerol (10%), Triton X-100 (1%) and BSA (1 mg mL-1)) into 96-well plates. Eukaryotic in vitro translation inhibition was quantified by use of TNT® T7 Quick Coupled Transcription/Translation System with a luciferase T7 control DNA plasmid (Promega), according to the manufacturer protocol. […] In both prokaryotic and eukaryotic systems the luminescence was measured immediately after the addition of the Luciferase Assay Reagent (50 μL; Promega), and the light emission was recorded with a FLx800 Fluorescence Microplate Reader (Biotek). […]
# In all biological tests, all AGs were in their sulfate salt forms, and the concentrations refer to the free amine form of each AG. […] Minimal inhibitory concentration (MIC) values were determined by using the double-microdilution method.
# [2] = system: B. subtilis ATCC-6633; assay: Antibacterial activity, MIC by double-microdilution; assay type: cell-based; conditions: Bacillus subtilis
# Description: (§1) Comparative antibacterial activities were determined in two representative strains of Gram-negative (E. coli R477-100) and Gram-positive (B. subtilis ATCC-6633) bacteria, by measuring the MIC values using the double-microdilution method according to the National Committee for Clinical Laboratory Standards (NCCLS) (NCCLS. National Committee for Clinical Laboratory Standards, Performance standards for antimicrobial susceptibility testing. Fifth information supplement: Approved Standard M100-S5; Villanova, Pa.: NCCLS, 1994.).
# (§2) In all biological tests, all AGs were in their sulfate salt forms, and the concentrations refer to the free amine form of each AG. The eukaryotic and prokaryotic half-maximal-inhibition values (IC50^Euk and IC50^Pro) were quantified in coupled transcription/translation assays by using active luciferase detection as previously described. Minimal inhibitory concentration (MIC) values were determined by using the double-microdilution method.
# [3] = system: E. coli R477-100; assay: as above; assay type: cell-based; conditions: Escherichia coli, R477100, read-out: Antibacterial Activity MIC E. Coli R 477/100
# Description: as §1, §2
# [4] = system: nonsense constructs R3X and R245X (USH1), Q70X (HS), G542X (CF); assay: Dual luciferase in vitro readthrough assay, p2Luc plasmids, TNT Reticulocyte Lysate; assay type: biochemical; conditions: all mutations tested: R3X, R245X, Q70X, G542X; FIGS. 11A-D
# Excerpt: DNA fragments derived from PCDH15, CFTR, and IDUA cDNAs, including the tested nonsense mutation or the corresponding wild type (wt) codon, and four to six upstream and downstream flanking codons were created by annealing the following pairs of complementary oligonucleotides:
# Fragments were inserted in frame into the polylinker of the p2Luc plasmid between either BamHI and SacI (p.R3X and p.R245X) or SalI and SacI (all the rest) restriction sites. For the in vitro readthrough assays, the obtained plasmids, with addition of the tested aminoglycosides were transcribed and translated using the TNT Reticulocyte Lysate Quick Coupled Transcription/Translation System. Luciferase activity was determined after 90 minutes of incubation at 30° C., using the Dual Luciferase Reporter Assay System (Promega™).
# Activity was tested using a collection of dual-luciferase reporter plasmids, containing different sequence contests around premature stop codons derived from the PCDH15, CFTR, and IDUA genes that underline USH1, CF, and MPS I-H, respectively. The exemplified nonsense reporters were R3X and R245X for USH1, G542X for CF, and Q70X for MPS I-H.
# [5] = system: prokaryotic ribosome (E. coli S30 extract); assay: Prokaryotic in vitro translation inhibition, coupled transcription/translation, E. coli S30 extract, pBESTluc; assay type: biochemical; conditions: from IC50^Pro and MIC values of Tables 4 and 6
# Description: Prokaryotic in vitro translation inhibition by the different aminoglycosides was quantified in coupled transcription/translation assays by using E. coli S30 extract for circular DNA with the pBESTluc plasmid (Promega), according to the manufacturer's protocol. Translation reactions (25 μL) that contained variable concentrations of the tested aminoglycoside were incubated at 37° C. for 60 minutes, cooled on ice for 5 minutes, and diluted with a dilution reagent (tris-phosphate buffer (25 mM, pH 7.8), DTT (2 mM), 1,2-diaminocyclohexanetetraacetate (2 mM), glycerol (10%), Triton X-100 (1%) and BSA (1 mg mL-1)) into 96-well plates. Eukaryotic in vitro translation inhibition was quantified by use of TNT® T7 Quick Coupled Transcription/Translation System with a luciferase T7 control DNA plasmid (Promega), according to the manufacturer protocol. Translation reactions (25 μL) containing variable concentrations of the tested aminoglycoside were incubated at 30° C. for 60 minutes, cooled on ice for 5 minutes, diluted with the dilution reagent and transferred into 96-well plates. In both prokaryotic and eukaryotic systems the luminescence was measured immediately after the addition of the Luciferase Assay Reagent (50 μL; Promega), and the light emission was recorded with a FLx800 Fluorescence Microplate Reader (Biotek). The half-maximal inhibition concentration (IC50) values were obtained from fitting concentration-response curves to the data of at least two independent experiments by using Grafit 5 software.
# as §2
# [6] = system: stop codon mutations of Table 5; assay: Dual-luciferase readthrough of a broad arsenal of stop codon mutations; assay type: biochemical; conditions: all tested mutations
# Description: In these assays, the readthrough of a broad arsenal of stop codon mutations in the presence of NB156 and NB157 was tested. Briefly, NB156 and NB157 were tested at escalating doses for their read-through properties towards the nonsense mutation using the wild-type (WT) sequence of each specific complementary DNA (cDNA) as a control, and plasmids bearing the stop codon mutations in a dual-luciferase assay. DNA fragments derived from different cDNAs were prepared using either the WT or nonsense mutation, in which the sequences from the mutant or wild-type codon were surrounded by four to six upstream and downstream flanking codons. The cDNA sequence was inserted into the polylinker of the p2luc plasmid for each sequence.
# [7] = system: Rett syndrome R168X, R270X and R294X nonsense mutations; assay: Cell-free nonsense mutation suppression assay, firefly/renilla; assay type: biochemical, rabbit; conditions: 5 μM, FIGS. 8A-C
# Description: (§3) The plasmids were transcribed in vitro and translated using rabbit reticulocytes (TNT mix) and then tested for the expression levels of the firefly and renilla luciferases.
# (§4) WT plasmids expressed both firefly and renilla luciferases while mutant plasmids expressed only the renilla luciferase due to the stop codon found in the inserted sequence. The readthrough assays were conducted for the tested compounds and the controls by adding the compounds to the in vitro transcription/translation reaction mixture. In case the compounds exerted suppression of the premature nonsense/stop codon mutation, the firefly luciferase was expressed and a fold-change in its expression was observed.
# FIGS. 8A-C present the results of Rett syndrome R168X (FIG. 8A), R270X (FIG. 8B) and R294X (FIG. 8C) nonsense mutations suppression cell-free assays conducted for six exemplary compounds according to embodiments of the present invention, NB144, NB145, NB146, NB150, NB151 and NB152, at a concentration of 5 μM. As shown therein, when compared with the control (non-treated cell extracts), the wild type cell extracts are unaffected (approx. 100%); however, in all three Rett syndrome mutation models there is a significant impact of the different treatments on the readthrough activity (>>>100%).
# [8] = system: cystic fibrosis G542X nonsense mutation; assay: Cell-free nonsense mutation suppression dose-response assay, firefly/renilla; assay type: biochemical, rabbit; conditions: 0-50 μM, FIGS. 4-7
# Description: as §3, §4
# Readthrough activity of Cystic Fibrosis (CF) mutation G542X was tested using the compounds presented in Table 1, and the mutation suppression was calculated based on firefly/renilla expression ratio values, and normalized with respect to the expression level of the WT and the control sample (no tested compound).
# [9] = system: human fibroblast cells; conditions: against human fibroblast cells; cited from earlier work
# [10] = system: premature termination codon (PTC); assay: Comparative in-vitro PTC suppression activity assays (Example 6); assay type: biochemical
# [11] = ATCC6633, Table 4, read-out: Antibacterial Activity MIC B. Subtilis ATCC6633
# [12] = ATCC6633, Table 6, read-out: Antibacterial activity MIC B. subtilis ATCC6633
structure (smiles),measurement,setting,value
"NC[C@H]1O[C@@H](O[C@@H]2[C@@H](O)[C@H](N)C[C@H](N)[C@H]2O[C@H]2O[C@H]([C@H](O)CO)[C@@H](O)[C@H](O)[C@H]2N)[C@@H](O)[C@H]1O [NB156, (2R, 3S, 4R, 5R, 6S)-5-amino-6-(((1R, 2R, 3S, 4R, 6S)-4,6-diamino-2-(((2S, 3S, 4R, 5R)-5-(aminomethyl)-3,4-dihydroxytetrahydrofuran-2-yl)oxy)-3-hydroxycyclohexyl)oxy)-2-((R)-1,2-dihydroxyethyl)tetrahydro-2H-pyran-3,4-diol]",fold more specific to the eukaryotic ribosome than structurally related compound,[1],1.85 fold
same,MIC,[2]; [11],34 µM
same,MIC,[3],> 273 µM
same,readthrough activity compared with gentamicin,[4],significantly better than that of the clinical drug gentamicin
same,readthrough activity compared with structurally related compound,[4],substantially better than that of the structurally related NB74
same,prokaryotic ribosome/protein synthesis inhibition and subsequent antibacterial activity compared with structurally related compound,[5],very similar to those of their structurally related Compounds NB74 and NB124
same,stop-codon mutation readthrough activity compared with NB74,[6],more active than NB74
CCCN[C@@H]1CC(N)[C@@H](O[C@H]2OC([C@@H](C)O)[C@@H](O)C(O)C2N)C(O)C1O (stereo in doubt) [NB146],readthrough activity compared within the series,[7],better activity compared to NB144 and NB145
same,"G542X mutation suppression (readthrough) activity, dose-response",[8],"clearly dose-dependent for all three compounds, and particularly for NB146; also recorded: notable dose-dependent readthrough activity"
NC[C@H]1O[C@@H](O[C@@H]2C(O)[C@H](N)CC(N)[C@H]2O[C@H]2OC(CO)=CC(O)[C@@H]2N)C(O)[C@H]1O (some centres unmarked) [NB158],MIC,[2]; [12],192 µg/mL
same,prokaryotic ribosome/protein synthesis inhibition and subsequent antibacterial activity compared with structurally related compound,[5],"significantly lower than that of the corresponding paromamine, NB30, and NB118"
"CN[C@@H]1[C@@H](O)[C@@H](O[C@@H]2[C@@H](O)[C@H](O[C@H]3O[C@H]([C@@H](C)O)[C@@H](O)[C@H](O)[C@H]3N)[C@@H](N)C[C@H]2N)OC[C@]1(C)O [Compound G418, geneticin, reference compound]",MIC,"[2]; ATCC6633, read-out: Antibacterial Activity MIC B. Subtilis ATCC6633",< 1.25 µM
same,MIC,[3],9 µM
same,LD50,[9],0.04 mg/mL
"C[C@H](N)[C@H]1O[C@@H](O[C@@H]2[C@@H](O)[C@H](N)C[C@H](N)[C@H]2O[C@H]2O[C@H]([C@H](O)CO)[C@@H](O)[C@H](O)[C@H]2N)[C@@H](O)[C@H]1O [NB157, (2R, 3S, 4R, 5R, 6S)-5-amino-6-(((1R, 2R, 3S, 4R, 6S)-4,6-diamino-2-(((2S, 3S, 4R, 5R)-5-((S)-1-aminoethyl)-3,4-dihydroxytetrahydrofuran-2-yl)oxy)-3-hydroxycyclohexyl)oxy)-2-((R)-1,2-dihydroxyethyl)tetrahydro-2H-pyran-3,4-diol]",fold more specific to the eukaryotic ribosome than structurally related compound,[1],1.25 fold
same,MIC,[2]; [11],64 µM
same,MIC,[3],> 257 µM
same,readthrough activity compared with gentamicin,[4],significantly better than that of the clinical drug gentamicin
same,readthrough activity compared with structurally related compound,[4],better than its structurally related NB124
same,prokaryotic ribosome/protein synthesis inhibition and subsequent antibacterial activity compared with structurally related compound,[5],very similar to those of their structurally related Compounds NB74 and NB124
"N[C@H]1[C@@H](O[C@H]2[C@H](O)[C@@H](O)[C@H](N)C[C@@H]2N)OC(CO)=C[C@@H]1O [NB154, (1S,2R,3R,4S,6R)-4,6-diamino-3-(((2S,3R,4S)-3-amino-4-hydroxy-6-(hydroxymethyl)-3,4-dihydro-2H-pyran-2-yl)oxy)cyclohexane-1,2-diol]",MIC,[2]; [12],> 384 µg/mL
same,MIC,[3],> 384 µg/mL
same,prokaryotic ribosome/protein synthesis inhibition and subsequent antibacterial activity compared with structurally related compound,[5],"significantly lower than that of the corresponding paromamine, NB30, and NB118"
same,in-vitro PTC suppression activity compared with structurally related compound,[10],more or less similar activity as that of NB82
same,"readthrough activity, fold higher than paromamine",[10]; preliminary comparative in-vitro PTC suppression assays,~3.5 fold
C[C@@H](O)C1O[C@H](O[C@@H]2C(N)C[C@@H](NC(=O)C(O)CCN)C(O)C2O[C@@H]2O[C@H](CNC(=N)N)C(O)C2O)C(N)C(O)[C@@H]1O (stereo in doubt) [NB152],readthrough activity compared within the series,[7],higher activity compared to NB150 and NB151
same,"G542X mutation suppression (readthrough) activity, dose-response",[8],notable dose-dependent readthrough activity
C[C@H](N)[C@H]1O[C@@H](O[C@@H]2C(O)[C@H](N)CC(N)[C@H]2O[C@H]2OC(CO)=CC(O)[C@@H]2N)C(O)[C@H]1O (some centres unmarked) [NB159],MIC,[2]; [12],192 µg/mL
same,prokaryotic ribosome/protein synthesis inhibition and subsequent antibacterial activity compared with structurally related compound,[5],"significantly lower than that of the corresponding paromamine, NB30, and NB118"

# Reference: patent publication US10899785B2, “Aminoglycoside derivatives and uses thereof in treating genetic disorders” (Eloxx Pharmaceuticals Ltd., priority 2015, dated 2021)
